Consider two compounds from US7488712B2, “Histone deacetylase inhibitors and methods for producing the same” (Kyushu Institute of Technology, priority 2002, dated 2009).

Each structure is given as a SMILES string. *1 amine or outer side, *2 acyl side, *3 side chain or, on linkers, in order; H or OH if unused. Where a SMILES comes first, the peptide text is derived from it. Bridges are numbered along the chain shown (N, C = ends). Roman numbers before positions name the chains, in order. [ ]: non-standard residue; d: D form. hNle(7-SH) = O=C([C@H](CCCCCS[*:3])N[*:1])[*:2] A value given as a limit tells only on which side of the number the result lay.

One data set addresses T1, human HDAC1 (Homo sapiens, UniProt Q13547).
T1 construct: FLAG; made in house; host or cells: 293T cells (transient transfection, anti-FLAG immunoprecipitation, FLAG peptide elution)
Put plainly: In vitro HDAC inhibition activity, [3H]-acetylated histone substrate, HDAC1. The data set is classed as biochemical. The following applies: Table 2; homodimer. How it is done: (§1) To measure HDAC inhibition activity, an HDAC solution was prepared as described below. 1×10^7 of 293T cells were plated on to a 100-mm dish and, after 24 hours, transfected with vectors (1 μg) expressing human HDAC1 and HDAC4 or mouse HDAC6, using LipofectAmine 2000 reagent (Life Technologies, Inc. Gaithersburg, Md.). […] The vectors were introduced for five hours in OPTI-MEM. The medium was then replaced with Dulbecco's modified Eagle's medium (DMEM), and incubated for 19 hours. The cells were washed with PBS, suspended in lysis buffer (50 mM Tris-HCl (pH7.5), 120 mM NaCl, 5 mM EDTA, and 0.5% Nonidet P-40), and sonicated. The supernatant was collected by centrifugation and nonspecific protein was removed using Protein A/G plus agarose beads (Santa Cruz Biotechnologies, Inc.). Anti-FLAG M2 antibodies (Sigma-Aldrich, Inc.) were added to the supernatant of cells expressing HDAC1 or HDAC4. Anti-HA antibodies (clone 3F10, Roche Molecular Biochemicals) were added to the supernatant of cells expressing HDAC6. Reaction in the respective mixtures was carried out at 4° C. for one hour. The resulting reaction mixtures were independently mixed with agarose beads and further reacted at 4° C. for one hour. The agarose beads were washed three times with lysis buffer and then washed once with HD buffer (20 mM Tris-HCl (pH8.0), 150 mM NaCl, 10% glycerol, and a complete protease inhibitor cocktail (Boehringer Mannheim, Germany)). […] The HDAC reaction solution was used for determining HDAC inhibition activity as shown below.
(§2) In vitro HDAC inhibition activity was evaluated as follows: A test compound was dissolved in DMSO and adjusted to 10 mM. This was used as an inhibitor stock solution. […] These reactions were stopped by adding 10 μl HCl. The [^3H] acetic acid excised by the enzyme reaction was extracted with ethyl acetate and subjected to radioactive dose measurement. As a negative control, the same procedure was carried out in which no inhibitor was added to the reaction system. The inhibition activity was expressed as a 50% inhibition concentration (“IC50 (nM)”) of the HDAC activity in the negative control (Tables 1 to 4).

The next data set has as its target T2, mouse HDAC6 (Mus musculus, UniProt Q9Z2V5).
T2 construct: HA; made in house; host or cells: 293T cells (transient transfection, anti-HA immunoprecipitation, HA peptide elution)
T2 sequence (Q9Z2V5 1-1149): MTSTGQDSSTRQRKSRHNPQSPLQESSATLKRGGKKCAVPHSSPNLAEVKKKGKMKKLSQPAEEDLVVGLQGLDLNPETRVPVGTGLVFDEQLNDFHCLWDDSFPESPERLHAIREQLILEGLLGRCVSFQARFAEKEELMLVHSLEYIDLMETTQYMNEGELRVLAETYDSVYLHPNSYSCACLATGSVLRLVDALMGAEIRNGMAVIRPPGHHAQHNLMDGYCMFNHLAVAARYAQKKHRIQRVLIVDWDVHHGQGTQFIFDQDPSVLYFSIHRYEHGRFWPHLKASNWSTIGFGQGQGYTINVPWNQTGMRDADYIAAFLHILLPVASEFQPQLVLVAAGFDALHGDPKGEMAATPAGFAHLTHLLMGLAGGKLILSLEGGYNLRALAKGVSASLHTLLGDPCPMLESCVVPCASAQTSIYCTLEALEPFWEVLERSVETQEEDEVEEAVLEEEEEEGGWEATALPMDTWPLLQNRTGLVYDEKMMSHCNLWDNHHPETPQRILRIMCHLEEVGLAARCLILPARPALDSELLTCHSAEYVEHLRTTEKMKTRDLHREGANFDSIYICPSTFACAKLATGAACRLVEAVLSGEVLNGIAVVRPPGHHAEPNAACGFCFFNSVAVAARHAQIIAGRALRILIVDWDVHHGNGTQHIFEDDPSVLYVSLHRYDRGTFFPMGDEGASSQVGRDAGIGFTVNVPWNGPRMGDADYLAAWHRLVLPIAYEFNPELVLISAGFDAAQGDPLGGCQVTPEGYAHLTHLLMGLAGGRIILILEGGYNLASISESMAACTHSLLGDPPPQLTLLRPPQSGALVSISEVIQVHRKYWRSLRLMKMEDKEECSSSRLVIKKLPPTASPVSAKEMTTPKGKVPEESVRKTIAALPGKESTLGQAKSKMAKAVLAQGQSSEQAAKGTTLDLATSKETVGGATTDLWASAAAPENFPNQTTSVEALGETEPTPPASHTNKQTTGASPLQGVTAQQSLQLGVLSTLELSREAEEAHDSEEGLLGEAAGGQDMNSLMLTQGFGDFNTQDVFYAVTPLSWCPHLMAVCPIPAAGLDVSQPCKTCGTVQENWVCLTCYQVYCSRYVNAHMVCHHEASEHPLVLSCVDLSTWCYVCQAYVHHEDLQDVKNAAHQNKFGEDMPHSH
Put plainly: In vitro HDAC inhibition activity, [3H]-acetylated histone substrate, HDAC6. It is filed as biochemical. Conditions: Table 2; homodimer. How it is done: as §1, §2

The test system of data set [1] is human wild-type p21 promoter. Put plainly: p21 promoter-inducing activity (luciferase) in MFLL-9 cells. The data set is classed as cell-based.
Data set [2] concerns human uterine cancer cells (HeLa). As to the kind of experiment: in vitro. How it is done:
(§3) Human normal lung cells (TIG-3) and human uterine cancer cells (HeLa) were used to test SCOP cytotoxicity. These TIG-3 and HeLa cells were cultured in a DMEM medium comprising 10% FBS at 37° C. in the presence of 5% carbon dioxide in a steam-saturated incubator. The TIG-3 and HeLa cells were plated in 100 μl/well of the above-described medium on a 96-well microtiter plate, at a density of 30,000 cells/well and 10,000 cells/well respectively. This was then cultured for 18 hours. Test compound solution diluted with medium was added to each well and culture was continued for another 48 hours.
(§4) 30 μl of supernatant from each well was transferred to another 96-well microtiter plate (A), and the remaining supernatant was discarded. 100 μl of 0.5% Triton-X/PBS was added to each well to lyse the cells, and 30 μl was then transferred to each respective well of another 96-well microtiter plate (B). 30 μl of LDH-Cytotoxic Test (Wako) substrate solution was added to each well of these 96-well microtiter plates A and B, causing a color reaction. Once the color reaction was sufficiently progressed, it was stopped by adding 60 μl of a quenching solution. Color intensity was measured at OD560 nm using a microplate reader (Softmax). [A/(A+B)] was calculated as the free-LDH ratio. […] The higher the activity value for cancer-cell-selective cell damage (LD50 for normal cells/LD50 for cancer cells), the more that cancer-cell-selective apoptosis was induced.

The nature of a further data set: in vitro. The following applies: human, Cancer-Cell-Selective Cytotoxicity. The protocol: as §3, §4
Data set [3] is described as follows: Stability in serum (FCS), read out by p21 promoter inducing activity. The data set is classed as in vitro ADME. The protocol: The stability of SCOP 152, SCOP 304, and SCOP 402 in serum was evaluated by the method shown below: 1 μl of 10 mM SCOP 152, SCOP 304, and SCOP 402 was added to 99 μl FCS, and incubated at 37° C. Each hour, NaCl in a sufficient amount for saturation and 1 ml of ethyl acetate were added to each mixture. After extraction, from 800 μl of the ethyl acetate phase, the ethyl acetate was distilled off, and then 100 μl of DMSO was added to the residue. The resulting solution was further diluted ten times with DMSO and used to measure p21 promoter inducing activity. Activity at incubation time zero was taken as 100%, and activities were compared (FIG. 7).

For another data set, the target named is T3, human HDAC4 (Homo sapiens, UniProt P56524).
T3 construct: FLAG; made in house; host or cells: 293T cells (transient transfection, anti-FLAG immunoprecipitation, FLAG peptide elution)
T3 sequence (O15379 whole entry partner): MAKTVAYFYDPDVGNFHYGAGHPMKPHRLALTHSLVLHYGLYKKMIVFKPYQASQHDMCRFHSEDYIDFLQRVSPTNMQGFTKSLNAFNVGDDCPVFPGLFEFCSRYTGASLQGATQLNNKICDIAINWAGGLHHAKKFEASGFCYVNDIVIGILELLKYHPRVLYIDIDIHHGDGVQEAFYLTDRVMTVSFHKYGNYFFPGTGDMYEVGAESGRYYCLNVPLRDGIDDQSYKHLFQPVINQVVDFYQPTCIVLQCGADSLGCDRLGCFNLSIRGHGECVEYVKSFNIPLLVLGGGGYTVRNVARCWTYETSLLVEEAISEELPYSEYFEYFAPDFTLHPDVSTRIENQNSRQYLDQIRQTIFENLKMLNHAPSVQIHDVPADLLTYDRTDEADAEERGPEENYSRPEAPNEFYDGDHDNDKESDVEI
T3 sequence (P56524 whole entry): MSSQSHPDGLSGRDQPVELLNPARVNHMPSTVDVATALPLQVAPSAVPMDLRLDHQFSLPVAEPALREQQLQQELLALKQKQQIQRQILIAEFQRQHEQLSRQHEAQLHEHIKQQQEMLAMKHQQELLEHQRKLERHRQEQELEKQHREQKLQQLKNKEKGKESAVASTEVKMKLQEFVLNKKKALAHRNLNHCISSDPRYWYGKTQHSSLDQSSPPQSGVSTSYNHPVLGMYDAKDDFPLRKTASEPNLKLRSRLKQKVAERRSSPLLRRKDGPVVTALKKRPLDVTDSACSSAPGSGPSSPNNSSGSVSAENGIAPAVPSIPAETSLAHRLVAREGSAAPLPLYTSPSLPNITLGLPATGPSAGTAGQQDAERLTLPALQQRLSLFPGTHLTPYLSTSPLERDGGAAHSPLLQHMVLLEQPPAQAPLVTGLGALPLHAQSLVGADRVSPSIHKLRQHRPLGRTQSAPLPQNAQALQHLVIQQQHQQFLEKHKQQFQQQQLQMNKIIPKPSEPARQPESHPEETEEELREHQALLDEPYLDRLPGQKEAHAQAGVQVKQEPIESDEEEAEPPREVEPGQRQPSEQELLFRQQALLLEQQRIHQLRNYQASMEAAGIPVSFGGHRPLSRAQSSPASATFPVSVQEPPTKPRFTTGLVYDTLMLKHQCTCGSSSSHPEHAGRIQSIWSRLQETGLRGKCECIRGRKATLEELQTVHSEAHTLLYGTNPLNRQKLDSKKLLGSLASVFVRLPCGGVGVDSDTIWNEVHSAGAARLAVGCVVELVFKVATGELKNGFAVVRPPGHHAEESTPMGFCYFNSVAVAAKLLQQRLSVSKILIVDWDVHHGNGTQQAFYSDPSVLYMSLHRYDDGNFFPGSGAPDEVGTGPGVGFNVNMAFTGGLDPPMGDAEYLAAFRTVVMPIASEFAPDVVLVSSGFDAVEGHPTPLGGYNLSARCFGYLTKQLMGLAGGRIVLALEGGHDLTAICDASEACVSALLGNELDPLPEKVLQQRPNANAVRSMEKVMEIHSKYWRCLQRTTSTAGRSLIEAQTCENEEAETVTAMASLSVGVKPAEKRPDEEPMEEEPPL
As to the kind of experiment: In vitro HDAC inhibition activity, [3H]-acetylated histone substrate, HDAC4. It is filed as biochemical. Conditions: Table 2; homodimer. How it is done: as §1, §2

For data set [4], the system named is Human normal lung cells (TIG-3). As to the kind of experiment: Cytotoxicity test (free-LDH ratio), TIG-3. The data set is classed as cell-based. The following applies: 48 hours; free-LDH ratio 50%; without DTT. How it is done:
This was then cultured for 18 hours.

T1 sequence (Q13547 whole entry): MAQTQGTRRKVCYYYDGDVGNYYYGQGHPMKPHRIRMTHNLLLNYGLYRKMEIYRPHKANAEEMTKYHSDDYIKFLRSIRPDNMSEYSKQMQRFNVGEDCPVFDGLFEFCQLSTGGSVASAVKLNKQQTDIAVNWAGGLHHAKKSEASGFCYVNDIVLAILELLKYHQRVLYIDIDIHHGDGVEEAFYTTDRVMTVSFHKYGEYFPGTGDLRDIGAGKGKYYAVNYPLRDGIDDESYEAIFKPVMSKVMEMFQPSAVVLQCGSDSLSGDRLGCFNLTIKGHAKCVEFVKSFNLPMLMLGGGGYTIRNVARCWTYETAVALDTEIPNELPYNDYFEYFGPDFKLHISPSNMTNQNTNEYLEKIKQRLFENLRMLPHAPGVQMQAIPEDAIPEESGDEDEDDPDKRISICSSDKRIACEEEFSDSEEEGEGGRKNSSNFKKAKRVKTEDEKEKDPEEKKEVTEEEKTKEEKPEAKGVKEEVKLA

Regarding `CC[C@H](C)[C@@H]1NC(=O)[C@@H](Cc2ccc(OC)cc2)NC(=O)[C@H](CCCCCSSCCCCC[C@@H]2NC(=O)[C@H]3CCCN3C(=O)[C@H]([C@@H](C)CC)NC(=O)[C@@H](Cc3ccc(OC)cc3)NC2=O)NC(=O)[C@H]2CCCN2C1=O` [SCOP 304, cyclo(-L-Am7(-)-D-Tyr(Me)-L-Ile-D-Pro-)] (I: cyclo([hNle(7-SH)][dY](Me)I[dP]) / II: cyclo([hNle(7-SH)][dY](Me)I[dP]); disulfide I:1-II:1), the IC50 is 142 nM against human HDAC1, over 500000 nM against mouse HDAC6 and 145 nM against human HDAC4. The compound further showed an EC50 in data set [1] (Table 2, homodimer) of 341 nM. Further, the “Cancer-Cell-Selective Cytotoxicity” value in data set [2] (human, 48 h) was found to be 23.0. Further, the selectivity ratio at 48 h in “in vitro” is 25.2. In data set [3], the “Retention of activity in serum” value is reported as “stably retain activity in serum for longer than SCOP 152”.
`CC(/C=C/C(=O)NO)=C\[C@@H](C)C(=O)c1ccc(N(C)C)cc1` [TSA, Tricostatin A, reference compound] returned an EC50 in data set [1] (Table 4, positive control) of 445 nM. In addition, in data set [2] (48 hours, free-LDH ratio 50%, without DTT), the “LD50 (nM) HeLa” value amounted to 41.4 nM. The “LD50 (nM) TIG-3” value in data set [4] is reported as 1580 nM.

By IC50 is commonly meant the concentration that gives 50% inhibition. Read a low IC50 as greater potency in that assay. What is called EC50 is the midpoint of the concentration-response curve. Read a low EC50 as greater potency.
